Measurements: publication PMC12446476 (Nature Communications, 2025)
Several values for one entry are separate records, joined by “and”; a condition that tells them apart may be missing. Identical values can stand only once.

Tested on: N. gonorrhoeae
Experiment: N. gonorrhoeae murine vaginal infection model, efficacy
Assay type: in vivo, mouse
Conditions: vaginal lavage, individual mice, BID
Protocol: The N. gonorrhoeae female mouse vaginal model[45] was performed in accordance with the Guide for Care and Use of Laboratory Animals[75]. Animal rooms were maintained at a temperature range of 20–24 °C and humidity between 30% and 70%, with 12 h light/dark cycles. Ovariectomized BALB/c female mice (5–6 weeks, BioLASCO Taiwan Co., Ltd.) were treated with estradiol (0.23 mg/mouse) two days before infection and on the day of infection. Ovariectomized mice were used to avoid staging mice before treating them with estradiol. Beginning two days prior to infection and maintained until the end of the study, animals were treated twice daily with streptomycin (1.2 mg/mouse) and vancomycin (0.6 mg/mouse) each via intraperitoneal (IP) injection and received trimethoprim sulfate in the drinking water (0.4 mg/mL) to control vaginal microflora. Animals were anesthetised with pentobarbital (80 mg/kg), the vagina was rinsed with 50 mM HEPES (pH 7.4), and then inoculated with N. gonorrhoeae in pre-warmed PBS (0.02 mL/mouse containing ~1 × 10^5 CFU).
Control groups received either a single IP injection of ceftriaxone or 5% dextrose (vehicle) twice daily. Animals were sacrificed via CO2 asphyxiation at either 2 h (baseline), 26 and/or 50 h post-infection. Vaginal lavage was performed twice with 200 µL GC broth containing 0.05% saponin to recover bacteria. Bacterial burden in the lavage fluids was determined by performing 10-fold serial dilutions and plating on chocolate agar plates. Four strains were assessed using the model; ATCC 700825 is naturally streptomycin-resistant, whereas AR Bank0179-15, AR Bank0181-17 and WHO X-07 are derivatives of AR Bank0179, AR Bank0181 and WHO X, respectively, that were engineered for streptomycin resistance for use in the model.

[1] = N. gonorrhoeae AR Bank0179-15, Debio 1453P 20 mg/kg PO, 48h
[2] = N. gonorrhoeae AR Bank0179-15, Debio 1453P 30 mg/kg PO, 24h
[3] = N. gonorrhoeae AR Bank0179-15, Debio 1453P 30 mg/kg PO, 48h
[4] = N. gonorrhoeae AR Bank0179-15, Debio 1453P 40 mg/kg PO, 24h
[5] = N. gonorrhoeae AR Bank0179-15, Debio 1453P 40 mg/kg PO, 48h
[6] = N. gonorrhoeae AR Bank0179-15, Debio 1453P 80 mg/kg PO, 24h
[7] = N. gonorrhoeae AR Bank0179-15, Debio 1453P 80 mg/kg PO, 48h
[8] = N. gonorrhoeae AR Bank0181-17, Debio 1453P 20 mg/kg PO, 24h
[9] = N. gonorrhoeae AR Bank0181-17, Debio 1453P 30 mg/kg PO, 24h
[10] = N. gonorrhoeae AR Bank0181-17, Debio 1453P 40 mg/kg PO, 24h
[11] = N. gonorrhoeae AR Bank0181-17, Debio 1453P 80 mg/kg PO, 24h
[12] = N. gonorrhoeae ATCC 700825, Debio 1453P 10 mg/kg PO, 24h
[13] = N. gonorrhoeae ATCC 700825, Debio 1453P 20 mg/kg PO, 24h

Which results are given for `Cc1c(CN(C)C(=O)/C=C/c2cnc3c(c2)N[C@H](C)[C@H](OP(=O)([O-])[O-])C(=O)N3)oc2ccccc12.[Na+].[Na+]` [Debio 1453 P]?
CFU/mL lavage fluid [1]: <5 CFU/mL and 21100 CFU/mL and 105 CFU/mL and 6100 CFU/mL; Log10(CFU/mL lavage fluid) [1]: <0.70 Log10(CFU/mL lavage fluid) and 4.32 Log10(CFU/mL lavage fluid) and 2.02 Log10(CFU/mL lavage fluid) and 3.79 Log10(CFU/mL lavage fluid); CFU/mL lavage fluid [2]: <5 CFU/mL and 545 CFU/mL and 85 CFU/mL and 5500 CFU/mL and 125 CFU/mL; Log10(CFU/mL lavage fluid) [2]: <0.70 Log10(CFU/mL lavage fluid) and 2.74 Log10(CFU/mL lavage fluid) and 1.93 Log10(CFU/mL lavage fluid) and 3.74 Log10(CFU/mL lavage fluid) and 2.1 Log10(CFU/mL lavage fluid); CFU/mL lavage fluid [3]: <5 CFU/mL and 205 CFU/mL; Log10(CFU/mL lavage fluid) [3]: <0.70 Log10(CFU/mL lavage fluid) and 2.31 Log10(CFU/mL lavage fluid); CFU/mL lavage fluid [4]: 7600 CFU/mL and <5 CFU/mL and 200 CFU/mL and 115 CFU/mL; Log10(CFU/mL lavage fluid) [4]: 3.88 Log10(CFU/mL lavage fluid) and <0.70 Log10(CFU/mL lavage fluid) and 2.3 Log10(CFU/mL lavage fluid) and 2.06 Log10(CFU/mL lavage fluid); CFU/mL lavage fluid [5]: 65 CFU/mL and <5 CFU/mL; Log10(CFU/mL lavage fluid) [5]: 1.81 Log10(CFU/mL lavage fluid) and <0.70 Log10(CFU/mL lavage fluid); CFU/mL lavage fluid [6]: <5 CFU/mL; Log10(CFU/mL lavage fluid) [6]: <0.70 Log10(CFU/mL lavage fluid); CFU/mL lavage fluid [7]: <5 CFU/mL; Log10(CFU/mL lavage fluid) [7]: <0.70 Log10(CFU/mL lavage fluid); CFU/mL lavage fluid [8]: 1880000 CFU/mL and 790000 CFU/mL and 670000 CFU/mL and 810000 CFU/mL and 720000 CFU/mL; Log10(CFU/mL lavage fluid) [8]: 6.27 Log10(CFU/mL lavage fluid) and 5.9 Log10(CFU/mL lavage fluid) and 5.83 Log10(CFU/mL lavage fluid) and 5.91 Log10(CFU/mL lavage fluid) and 5.86 Log10(CFU/mL lavage fluid); CFU/mL lavage fluid [9]: 380000 CFU/mL and 1120000 CFU/mL and 11300 CFU/mL and 201000 CFU/mL and 620000 CFU/mL; Log10(CFU/mL lavage fluid) [9]: 5.58 Log10(CFU/mL lavage fluid) and 6.05 Log10(CFU/mL lavage fluid) and 4.05 Log10(CFU/mL lavage fluid) and 5.3 Log10(CFU/mL lavage fluid) and 5.79 Log10(CFU/mL lavage fluid); CFU/mL lavage fluid [10]: 11500 CFU/mL and 123000 CFU/mL and 200000 CFU/mL and 830000 CFU/mL and 730000 CFU/mL; Log10(CFU/mL lavage fluid) [10]: 4.06 Log10(CFU/mL lavage fluid) and 5.09 Log10(CFU/mL lavage fluid) and 5.3 Log10(CFU/mL lavage fluid) and 5.92 Log10(CFU/mL lavage fluid) and 5.86 Log10(CFU/mL lavage fluid); CFU/mL lavage fluid [11]: 275 CFU/mL; Log10(CFU/mL lavage fluid) [11]: 2.44 Log10(CFU/mL lavage fluid); CFU/mL lavage fluid [12]: 50000 CFU/mL and 21700 CFU/mL and 23000 CFU/mL and 15500 CFU/mL and 490000 CFU/mL; Log10(CFU/mL lavage fluid) [12]: 4.7 Log10(CFU/mL lavage fluid) and 4.34 Log10(CFU/mL lavage fluid) and 4.36 Log10(CFU/mL lavage fluid) and 4.19 Log10(CFU/mL lavage fluid) and 5.69 Log10(CFU/mL lavage fluid); CFU/mL lavage fluid [13]: 7500 CFU/mL and 5100 CFU/mL and 204000 CFU/mL and 15100 CFU/mL; Log10(CFU/mL lavage fluid) [13]: 3.88 Log10(CFU/mL lavage fluid) and 3.71 Log10(CFU/mL lavage fluid) and 5.31 Log10(CFU/mL lavage fluid) and 4.18 Log10(CFU/mL lavage fluid)
